Literature values, collected in patent publication EP3854384A1, “PHARMACEUTICAL FORMULATION COMPRISING ABIRATERONE ACETATE” (Adamed Pharma S.A., priority 2020, dated 2021).

Conditions: low water solubility and low intestinal permeability

- Biopharmaceutical Classification System (BCS) class: class IV
Structure (SMILES): CC(=O)O[C@H]1CC[C@@]2(C)C(=CC[C@@H]3[C@@H]2CC[C@]2(C)C(c4cccnc4)=CC[C@@H]32)C1 [Abiraterone acetate, (3β)-17-(3-pyridinyl)androsta-5,16-dien-3-yl acetate]
